Measured values: US9550796B2, “Pyrrolopyrrolone derivatives and their use as BET inhibitors” (NOVARTIS AG, priority 2013, dated 2017)

System: K-562
Assay: Cell growth inhibition assay (CellTiter-Glo), K-562
Assay type: cell-based, human
Conditions: K-562 cells, 4 days; for GI50: Homo sapiens, K562, 96 h, half-maximal growth inhibition; for K-562 TGI: total growth inhibition
Outline: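 Proliferation and viability are quantified by CellTiter-Glo after four days of incubation with serially diluted compound (maximum 10 μM). Four-parameter curve fitting gives IC50 and TGI.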

Compound	GI50 [nM]	K-562 TGI [nM]
Cc1cn(C)c2c1C(=O)N(c1cc(C)c3nnc(C)n3c1)C2c1ccc(Cl)cc1 (stereo not drawn) [Example 33, 6-(4-chlorophenyl)-5-(3,8-dimethyl-[1,2,4]triazolo[4,3-a]pyridin-6-yl)-1,3-di methyl-5,6-dihydropyrrolo[3,4-b]pyrrol-4(1H)-one]	97.4	>10000
Cc1cn(C)c2c1C(=O)N(c1cc(C)c(=O)n(C)c1)C2c1ccc(Cl)cc1 (stereo not drawn) [Example 34, 6-(4-chlorophenyl)-5-(1,5-dimethyl-6-oxo-1,6-dihydropyridin-3-yl)-1,3-dimethyl-5,6-dihydropyrrolo[3,4-b]pyrrol-4(1H)-one]	241	>10000
COc1ncc(-c2cc3c(n2C)C(c2ccc(Cl)cc2)N(c2cc(Cl)c(=O)n(C)c2)C3=O)c(OC)n1 (stereo not drawn) [Example 38, 5-(5-chloro-1-methyl-6-oxo-1,6-dihydropyridin-3-yl)-6-(4-chlorophenyl)-2-(2,4-dimethoxypyrimidin-5-yl)-1-methyl-5,6-dihydropyrrolo[3,4-b]pyrrol-4(1H)-one]	154	>10000
Cn1c(-c2ccc(=O)n(C)c2)cc2c1C(c1ccc(Cl)cc1)N(c1cc(Cl)c(=O)n(C)c1)C2=O (stereo not drawn) [Example 42, 5-(5-chloro-1-methyl-6-oxo-1,6-dihydropyridin-3-yl)-6-(4-chlorophenyl)-1-methyl-2-(1-methyl-6-oxo-1,6-dihydropyridin-3-yl)-5,6-dihydropyrrolo[3,4-b]pyrrol-4(1H)-one]	3190	>10000
Cc1cc(N2C(=O)c3cc(-c4ccn(C)c(=O)c4)n(C)c3C2c2ccc(Cl)cc2)cn(C)c1=O (stereo not drawn) [Example 45, 6-(4-chlorophenyl)-5-(1,5-dimethyl-6-oxo-1,6-dihydropyridin-3-yl)-1-methyl-2-(1-methyl-2-oxo-1,2-dihydropyridin-4-yl)-5,6-dihydropyrrolo[3,4-b]pyrrol-4(1H)-one]	345	>10000
COc1ncc(-c2cc3c(n2C)[C@@H](c2ccc(Cl)cc2)N(c2cc(C)c(=O)n(C)c2)C3=O)c(OC)n1 [Example 54, (R)-6-(4-chlorophenyl)-2-(2,4-dimethoxypyrimidin-5-yl)-5-(1,5-dimethyl-6-oxo-1,6-dihydropyridin-3-yl)-1-methyl-5,6-dihydropyrrolo[3,4-b]pyrrol-4(1H)-one]	48.3	>10000
COc1ncc(-c2cc3c(n2C)[C@@H](c2ccc(Cl)cc2)N(c2cc(C)c(=O)n(C)c2)C3=O)cn1 [Example 56, (R)-6-(4-chlorophenyl)-5-(1,5-dimethyl-6-oxo-1,6-dihydropyridin-3-yl)-2-(2-methoxypyrimidin-5-yl)-1-methyl-5,6-dihydropyrrolo[3,4-b]pyrrol-4(1H)-one]	103	>10000
Cc1cc2c(n1C)[C@@H](c1ccc(Cl)cc1)N(c1cc(Cl)c(=O)n(C)c1)C2=O [Example 75, (R)-5-(5-chloro-1-methyl-6-oxo-1,6-dihydropyridin-3-yl)-6-(4-chlorophenyl)-1,2-dimethyl-5,6-dihydropyrrolo[3,4-b]pyrrol-4(1H)-one]	289	>10000
Cn1ccc2c1[C@@H](c1ccc(Cl)cc1)N(c1cc(Cl)c(=O)n(C)c1)C2=O [Example 77, (R)-5-(5-chloro-1-methyl-6-oxo-1,6-dihydropyridin-3-yl)-6-(4-chlorophenyl)-1-methyl-5,6-dihydropyrrolo[3,4-b]pyrrol-4(1H)-one]	342	>10000
